Source: patent publication US7074789B2, “Kinase inhibitors” (Amgen Inc., priority 1999, dated 2006)

How the values were obtained:
Format in all cases: biochemical
[1] = target: T1, Itk (Homo sapiens, UniProt Q08881); experiment: Kinase inhibition assay (33P transfer), Itk; conditions: Table 3; for IC50: read-out: Itk-1
T1 construct: Kinases are expressed as either kinase domains or full length constructs; made in house
T1 sequence (Q08881 1-620): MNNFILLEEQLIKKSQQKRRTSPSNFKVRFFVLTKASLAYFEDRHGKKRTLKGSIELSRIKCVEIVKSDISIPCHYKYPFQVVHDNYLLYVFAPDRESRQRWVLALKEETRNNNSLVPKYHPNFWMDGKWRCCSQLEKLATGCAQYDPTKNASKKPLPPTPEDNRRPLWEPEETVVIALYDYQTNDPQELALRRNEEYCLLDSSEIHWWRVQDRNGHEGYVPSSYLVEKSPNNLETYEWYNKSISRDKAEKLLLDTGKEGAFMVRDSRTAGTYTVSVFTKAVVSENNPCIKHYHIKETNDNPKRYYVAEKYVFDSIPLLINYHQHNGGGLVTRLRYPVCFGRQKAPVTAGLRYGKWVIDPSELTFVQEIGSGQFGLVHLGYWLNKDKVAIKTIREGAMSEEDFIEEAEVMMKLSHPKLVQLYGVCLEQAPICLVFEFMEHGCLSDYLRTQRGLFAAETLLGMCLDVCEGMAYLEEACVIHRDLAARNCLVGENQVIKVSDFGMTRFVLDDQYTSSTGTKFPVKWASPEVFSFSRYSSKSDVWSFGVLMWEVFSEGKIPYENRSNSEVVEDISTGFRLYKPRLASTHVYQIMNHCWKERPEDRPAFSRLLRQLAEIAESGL
Outline: (§1)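 Kinase domains or full-length enzymes, GST- or polyHis-tagged, were expressed in E. coli or baculovirus High Five cells and affinity-purified. Transfer of 33PO4 from ATP onto plate-bound poly(Glu,Tyr) 4:1 or poly(Arg,Ser) 3:1 was counted by liquid scintillation after a 0.5% phosphoric acid wash. IC50 = concentration halving incorporation.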

[2] = target: T2, IGFR-1 (Homo sapiens, UniProt P08069); experiment: Kinase inhibition assay (33P transfer), IGFR-1; conditions: Table 2, kinase inhibition class
T2 construct: Kinases are expressed as either kinase domains or full length constructs; made in house

[3] = target: T3, Lck (Homo sapiens, UniProt P06239); experiment: Kinase inhibition assay (33P transfer), Lck; conditions: Table 3; for IC50: read-out: Lck-1
T3 construct: Kinases are expressed as either kinase domains or full length constructs; made in house
Outline: (§2)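 Each kinase, expressed as a GST- or polyHis-tagged domain or full-length protein, phosphorylated plate-attached poly(Glu,Tyr) 4:1 or poly(Arg,Ser) 3:1 using 33P-ATP. Bound radioactivity was measured by scintillation after a 0.5% phosphoric acid wash.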

[4] = target: T4, AKT (Homo sapiens, UniProt Q9Y243); experiment: Kinase inhibition assay (33P transfer), AKT; conditions: Table 2, kinase inhibition class; for IC50: read-out: AKT3-1
T4 construct: Kinases are expressed as either kinase domains or full length constructs; made in house
Outline: as §2

[5] = target: T5, EGFR (Homo sapiens, UniProt P00533); experiment: Kinase inhibition assay (33P transfer), EGFR; conditions: Table 2, kinase inhibition class; for IC50: read-out: EGFR-1
T5 construct: Kinases are expressed as either kinase domains or full length constructs; made in house
Outline: as §1

[6] = target: T6, Fyn (Homo sapiens, UniProt P06241); experiment: Kinase inhibition assay (33P transfer), Fyn; conditions: for IC50: read-out: Fyn-1
T6 construct: Kinases are expressed as either kinase domains or full length constructs; made in house
Outline: as §1

[7] = target: T7, PDGFRB (Homo sapiens, UniProt P09619); experiment: Kinase inhibition assay (33P transfer), PDGFRB; conditions: read-out: PDGFRB-1
T7 construct: Kinases are expressed as either kinase domains or full length constructs; made in house

[8] = target: T8, Src (Homo sapiens, UniProt P12931); experiment: Kinase inhibition assay (33P transfer), Src; conditions: Table 6, Src-1 kinase inhibition class
T8 construct: Kinases are expressed as either kinase domains or full length constructs; made in house
Outline: as §1

[9] = target: T9, ErbB4 (Homo sapiens, UniProt Q15303); experiment: Kinase inhibition assay (33P transfer), ErbB4; conditions: read-out: ErbB4-1
T9 construct: Kinases are expressed as either kinase domains or full length constructs; made in house

[10] = target: T10, Flt-1 (Homo sapiens, UniProt P17948); experiment: Kinase inhibition assay (33P transfer), Flt-1
T10 construct: Kinases are expressed as either kinase domains or full length constructs; made in house
Outline: as §1

[11] = target: T11, ErbB2 (Homo sapiens, UniProt P04626); experiment: Kinase inhibition assay (33P transfer), ErbB2; conditions: read-out: ErbB2-2
T11 construct: Kinases are expressed as either kinase domains or full length constructs; made in house
Outline: as §1

T8 sequence (P12931 whole entry, species assumed, the tested form may be a part): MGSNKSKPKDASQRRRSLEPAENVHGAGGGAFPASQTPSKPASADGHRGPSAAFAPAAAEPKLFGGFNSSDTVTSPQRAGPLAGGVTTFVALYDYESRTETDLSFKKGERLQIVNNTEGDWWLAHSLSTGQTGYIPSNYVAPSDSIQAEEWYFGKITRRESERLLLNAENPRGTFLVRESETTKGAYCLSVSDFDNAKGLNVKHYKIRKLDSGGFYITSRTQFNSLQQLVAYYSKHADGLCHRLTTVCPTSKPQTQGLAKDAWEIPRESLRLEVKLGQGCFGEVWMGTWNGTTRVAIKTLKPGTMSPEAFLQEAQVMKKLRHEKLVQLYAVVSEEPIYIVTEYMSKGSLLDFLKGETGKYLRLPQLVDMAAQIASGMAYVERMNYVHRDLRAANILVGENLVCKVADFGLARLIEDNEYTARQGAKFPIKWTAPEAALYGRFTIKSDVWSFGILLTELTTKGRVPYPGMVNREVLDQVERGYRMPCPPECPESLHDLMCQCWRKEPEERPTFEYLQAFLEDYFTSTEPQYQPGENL
T3 sequence (P06239 whole entry, species assumed, the tested form may be a part): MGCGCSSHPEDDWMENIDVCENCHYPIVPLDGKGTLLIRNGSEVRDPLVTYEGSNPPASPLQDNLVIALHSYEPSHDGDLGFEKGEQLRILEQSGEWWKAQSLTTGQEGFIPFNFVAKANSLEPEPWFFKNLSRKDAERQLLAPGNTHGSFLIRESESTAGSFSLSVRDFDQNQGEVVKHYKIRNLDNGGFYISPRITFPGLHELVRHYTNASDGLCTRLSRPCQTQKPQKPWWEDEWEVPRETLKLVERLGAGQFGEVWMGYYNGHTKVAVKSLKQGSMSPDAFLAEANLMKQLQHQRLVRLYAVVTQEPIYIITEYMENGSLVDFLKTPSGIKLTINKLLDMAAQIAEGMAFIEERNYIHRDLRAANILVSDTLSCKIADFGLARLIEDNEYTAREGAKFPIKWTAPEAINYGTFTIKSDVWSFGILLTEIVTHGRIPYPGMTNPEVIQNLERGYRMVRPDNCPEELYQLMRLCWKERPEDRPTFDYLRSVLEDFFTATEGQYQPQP
T4 sequence (Q9Y243 whole entry, the tested form may be a part): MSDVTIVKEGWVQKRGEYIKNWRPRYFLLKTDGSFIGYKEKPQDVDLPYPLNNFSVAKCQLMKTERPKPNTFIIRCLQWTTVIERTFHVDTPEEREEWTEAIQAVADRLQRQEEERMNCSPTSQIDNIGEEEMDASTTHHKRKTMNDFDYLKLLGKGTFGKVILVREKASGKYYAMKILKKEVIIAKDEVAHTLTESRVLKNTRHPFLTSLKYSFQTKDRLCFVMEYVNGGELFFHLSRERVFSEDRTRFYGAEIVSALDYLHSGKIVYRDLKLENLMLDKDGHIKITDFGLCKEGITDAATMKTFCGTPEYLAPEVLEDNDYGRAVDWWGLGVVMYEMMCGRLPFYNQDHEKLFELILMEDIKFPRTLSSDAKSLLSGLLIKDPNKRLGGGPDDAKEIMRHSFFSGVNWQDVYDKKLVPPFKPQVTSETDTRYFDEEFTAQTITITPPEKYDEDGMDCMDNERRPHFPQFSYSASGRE
T9 sequence (Q15303 26-1308, species assumed): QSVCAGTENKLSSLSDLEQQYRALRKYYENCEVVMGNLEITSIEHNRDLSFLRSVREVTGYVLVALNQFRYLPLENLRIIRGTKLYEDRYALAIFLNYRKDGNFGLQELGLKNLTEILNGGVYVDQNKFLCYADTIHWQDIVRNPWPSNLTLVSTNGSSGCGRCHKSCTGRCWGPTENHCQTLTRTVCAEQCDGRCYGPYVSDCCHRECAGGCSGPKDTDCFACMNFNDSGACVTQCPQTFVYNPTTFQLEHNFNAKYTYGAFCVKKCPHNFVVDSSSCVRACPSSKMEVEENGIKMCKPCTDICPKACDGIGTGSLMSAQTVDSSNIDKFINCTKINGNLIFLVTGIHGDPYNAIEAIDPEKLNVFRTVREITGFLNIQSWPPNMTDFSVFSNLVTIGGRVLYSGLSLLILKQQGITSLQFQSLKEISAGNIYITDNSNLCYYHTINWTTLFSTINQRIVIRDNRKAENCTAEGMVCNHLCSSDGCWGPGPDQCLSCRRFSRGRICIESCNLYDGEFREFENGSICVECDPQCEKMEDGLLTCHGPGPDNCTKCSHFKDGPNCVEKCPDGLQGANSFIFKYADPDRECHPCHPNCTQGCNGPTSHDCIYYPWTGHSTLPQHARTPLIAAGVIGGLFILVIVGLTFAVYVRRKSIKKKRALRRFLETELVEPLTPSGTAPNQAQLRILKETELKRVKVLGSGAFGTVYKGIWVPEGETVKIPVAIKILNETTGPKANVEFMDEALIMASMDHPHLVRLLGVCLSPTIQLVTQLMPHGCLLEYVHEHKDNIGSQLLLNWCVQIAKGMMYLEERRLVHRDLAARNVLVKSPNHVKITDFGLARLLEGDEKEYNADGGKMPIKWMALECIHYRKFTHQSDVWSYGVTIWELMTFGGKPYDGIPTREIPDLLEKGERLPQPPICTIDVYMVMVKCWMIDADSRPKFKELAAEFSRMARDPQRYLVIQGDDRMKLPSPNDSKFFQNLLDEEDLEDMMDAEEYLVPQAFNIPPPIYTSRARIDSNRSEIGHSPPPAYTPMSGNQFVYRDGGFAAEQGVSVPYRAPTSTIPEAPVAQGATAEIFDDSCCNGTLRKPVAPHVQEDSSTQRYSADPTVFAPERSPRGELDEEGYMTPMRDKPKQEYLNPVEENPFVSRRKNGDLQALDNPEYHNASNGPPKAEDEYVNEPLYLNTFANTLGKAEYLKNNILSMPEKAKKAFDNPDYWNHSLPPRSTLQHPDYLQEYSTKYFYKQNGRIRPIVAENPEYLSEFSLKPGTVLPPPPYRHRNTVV
T2 sequence (P08069 31-1367): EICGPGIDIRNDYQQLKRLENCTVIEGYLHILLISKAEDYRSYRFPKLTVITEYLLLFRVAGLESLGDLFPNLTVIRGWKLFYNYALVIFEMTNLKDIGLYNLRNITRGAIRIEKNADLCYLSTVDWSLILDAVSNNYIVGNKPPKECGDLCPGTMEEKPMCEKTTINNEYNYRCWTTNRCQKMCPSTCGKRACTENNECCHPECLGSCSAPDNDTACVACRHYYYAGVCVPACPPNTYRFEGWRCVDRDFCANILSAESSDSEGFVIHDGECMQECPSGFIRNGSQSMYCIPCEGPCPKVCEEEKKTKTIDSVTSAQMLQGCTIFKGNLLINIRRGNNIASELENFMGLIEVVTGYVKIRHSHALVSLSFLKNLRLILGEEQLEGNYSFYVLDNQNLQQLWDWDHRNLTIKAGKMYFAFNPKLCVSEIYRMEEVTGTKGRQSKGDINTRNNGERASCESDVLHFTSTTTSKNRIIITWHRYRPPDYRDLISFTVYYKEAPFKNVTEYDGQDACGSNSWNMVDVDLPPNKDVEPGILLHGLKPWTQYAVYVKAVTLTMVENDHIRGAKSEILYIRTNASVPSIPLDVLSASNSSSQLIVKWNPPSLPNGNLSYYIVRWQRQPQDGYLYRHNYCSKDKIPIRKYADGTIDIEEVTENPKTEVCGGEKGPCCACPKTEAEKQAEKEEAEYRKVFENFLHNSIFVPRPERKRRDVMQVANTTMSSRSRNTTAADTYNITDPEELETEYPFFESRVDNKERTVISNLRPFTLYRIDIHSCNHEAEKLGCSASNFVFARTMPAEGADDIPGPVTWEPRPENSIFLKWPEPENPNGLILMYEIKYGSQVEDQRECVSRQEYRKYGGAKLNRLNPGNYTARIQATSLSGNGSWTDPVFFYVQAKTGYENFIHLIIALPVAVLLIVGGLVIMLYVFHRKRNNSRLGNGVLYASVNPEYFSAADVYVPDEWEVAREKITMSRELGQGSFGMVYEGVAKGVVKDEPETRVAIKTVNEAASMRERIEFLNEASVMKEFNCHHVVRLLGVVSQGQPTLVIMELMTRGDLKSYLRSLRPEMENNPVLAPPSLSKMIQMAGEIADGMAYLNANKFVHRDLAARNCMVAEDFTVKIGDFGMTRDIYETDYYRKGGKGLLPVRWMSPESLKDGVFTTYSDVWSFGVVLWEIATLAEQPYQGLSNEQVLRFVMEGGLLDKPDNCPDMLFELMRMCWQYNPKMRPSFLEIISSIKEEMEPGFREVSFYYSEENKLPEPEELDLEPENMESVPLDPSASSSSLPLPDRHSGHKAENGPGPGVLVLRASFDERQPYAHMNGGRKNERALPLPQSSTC
T6 sequence (P06241 whole entry, species assumed, the tested form may be a part): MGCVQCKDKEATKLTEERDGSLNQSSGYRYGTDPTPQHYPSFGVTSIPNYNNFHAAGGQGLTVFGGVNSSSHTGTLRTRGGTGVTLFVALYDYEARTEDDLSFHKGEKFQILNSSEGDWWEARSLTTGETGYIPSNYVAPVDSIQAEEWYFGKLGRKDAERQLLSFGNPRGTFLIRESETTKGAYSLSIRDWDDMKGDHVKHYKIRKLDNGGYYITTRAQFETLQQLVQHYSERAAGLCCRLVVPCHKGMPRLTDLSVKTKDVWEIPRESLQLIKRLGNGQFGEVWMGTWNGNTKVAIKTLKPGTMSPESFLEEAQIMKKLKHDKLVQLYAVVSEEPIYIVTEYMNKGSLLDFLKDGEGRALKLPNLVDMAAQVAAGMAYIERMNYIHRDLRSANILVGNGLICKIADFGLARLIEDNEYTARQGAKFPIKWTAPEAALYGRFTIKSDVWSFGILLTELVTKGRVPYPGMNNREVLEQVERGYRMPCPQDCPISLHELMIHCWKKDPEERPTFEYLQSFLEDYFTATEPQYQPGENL

SMILES | IC50 [1] [µM] | IC50 [2] [µM] | IC50 [3] [µM] | IC50 [4] [µM] | IC50 [5] [µM] | IC50 [6] [µM] | IC50 [7] [µM] | IC50 [8] [µM] | IC50 [9] [µM] | IC50 [10] [µM] | IC50 [11] [µM] | Itk-1 [1] | IGFR-1 [2] | Lck-1 [3] | AKT3-1 [4] | EGFR-1 [5] | Fyn-1 [6] | Src-1 [8]
COc1cc(Nc2ncnc(Nc3cc(-c4cccs4)n[nH]3)n2)cc(OC)c1OC [Compound 318] | 5.64 to 8.23 | < 0.94 | 0.94 to 5.64 | 8.23 to 10.6 | < 0.94 | < 0.94 | < 0.94 | < 0.94 | < 0.94 | < 0.94 |  |  |  |  |  |  |  | 
c1coc(-c2cc(Nc3ncnc(Nc4ccc(N5CCOCC5)cc4)n3)[nH]n2)c1 [Compound 340] | > 11.1 | < 0.989 | 0.989 to 5.93 | 5.93 to 8.65 | 5.93 to 8.65 | 0.989 to 5.93 | 8.65 to 11.1 | > 11.1 | 0.989 to 5.93 | < 0.989 |  |  |  |  |  |  |  | 
COc1cc(Nc2ncnc(-n3ccc4cc(OCc5ccccc5)ccc43)n2)cc(OC)c1OC [Compound 200] | > 9.31 | > 9.31 | 7.24 to 9.31 | > 9.31 | > 9.31 | > 9.31 | 0.827 to 4.96 | > 9.31 | 4.96 to 7.24 | > 9.31 |  |  |  |  |  |  |  | 
COc1cc(Nc2ncnc(-n3cnc4ccccc43)n2)cc(OC)c1OC [Compound 186] | > 11.9 | 1.06 to 6.34 | 1.06 to 6.34 | > 11.9 | 9.25 to 11.9 | > 11.9 | < 1.06 | > 11.9 | > 11.9 | 1.06 to 6.34 |  |  |  |  |  |  |  | 
COc1cc(Nc2ncnc(Nc3cc(-c4ccco4)n[nH]3)n2)cc(OC)c1OC [Compound 308] | 0.977 to 5.86 | < 0.977 | 0.977 to 5.86 | 8.55 to 11 | < 0.977 | < 0.977 | < 0.977 | < 0.977 | 0.977 to 5.86 | < 0.977 |  |  |  |  |  |  |  | 
COc1cc(Nc2ncnc(N3c4ccc(F)cc4CCC3C)n2)cc(OC)c1OC (stereo not shown) [Compound 298] | 0.94 to 5.64 | 5.64 to 8.23 | 0.94 to 5.64 | > 10.6 | 0.94 to 5.64 | 0.94 to 5.64 | < 0.94 | 0.94 to 5.64 | 0.94 to 5.64 | < 0.94 |  |  |  |  |  |  |  | 
COc1cc(Nc2ncnc(-n3c(Nc4ccccc4)nc4ccccc43)n2)cc(OC)c1OC [Compound 336] | > 9.58 | > 9.58 | 0.852 to 5.11 | > 9.58 | > 9.58 | > 9.58 | < 0.852 | > 9.58 | > 9.58 | < 0.852 |  |  |  |  |  |  |  | 
COc1cc(Nc2ncnc(Nc3cc(C(C)(C)C)[nH]n3)n2)cc(OC)c1OC [Compound 313] | 6.01 to 8.76 | < 1 | 1 to 6.01 | > 11.3 | 1 to 6.01 | 1 to 6.01 | 1 to 6.01 | < 1 | < 1 | 6.01 to 8.76 |  |  |  |  |  |  |  | 
COc1ccc(Nc2ncnc(-n3c(N)nc4ccccc43)n2)cc1O [Compound 286] | 1.14 to 6.87 | < 1.14 | 1.14 to 6.87 | 6.87 to 10 | 6.87 to 10 | > 12.9 | 1.14 to 6.87 | 10 to 12.9 |  | < 1.14 |  |  |  |  |  |  |  | 
COc1cc(Nc2ncnc(Nc3cc(OC)c(OC)c(OC)c3)n2)cc(OC)n1 [Compound 253] | > 10.9 | > 10.9 | 8.45 to 10.9 | > 10.9 | 5.79 to 8.45 | > 10.9 |  | < 0.965 |  |  |  |  |  |  |  |  |  | 
Cc1cccc(Nc2ncnc(Nc3cccc(Br)c3)n2)c1 [Compound 109] | > 12.6 | > 12.6 | > 12.6 | > 12.6 | < 1.12 |  | > 12.6 |  | > 12.6 |  | 6.74 to 9.83 |  |  |  |  |  |  | 
COc1cc(Nc2ncnc(-c3ccccc3)n2)cc(OC)c1OC [Compound 970] | > 13.3 | > 13.3 | > 13.3 | > 13.3 | > 13.3 | 10.3 to 13.3 | 7.09 to 10.3 | > 13.3 |  | 7.09 to 10.3 |  |  |  |  |  |  |  | 
COc1ccc(Nc2ncnc(Nc3ccc(N(C)C)cc3)n2)cc1OC [Compound 114] | > 12.3 | 6.55 to 9.55 | > 12.3 | > 12.3 | > 12.3 |  | > 12.3 |  |  | > 12.3 |  |  |  |  |  |  |  | 
COc1ccc(Nc2ncnc(Nc3cc(OC)c(OC)c(OC)c3)n2)cc1OC [Compound 36] | > 10.9 | > 10.9 | 0.968 to 5.81 | > 10.9 | 8.47 to 10.9 | > 10.9 | < 0.968 | > 10.9 |  | < 0.968 |  |  |  |  |  |  |  | 
COc1cc(Nc2ncnc(Nc3ccc(C(=O)O)cc3)n2)cc(OC)c1OC [Compound 104] | > 11.3 | 6.04 to 8.81 | 6.04 to 8.81 | > 11.3 | 1.01 to 6.04 | 1.01 to 6.04 | 1.01 to 6.04 | 6.04 to 8.81 |  | 1.01 to 6.04 | 1.01 to 6.04 |  |  |  |  |  |  | 
COc1cc(Nc2ncnc(-n3cc(C)c4ccccc43)n2)cc(OC)c1OC [Compound 323] | > 11.5 | > 11.5 | 8.94 to 11.5 | > 11.5 | > 11.5 | > 11.5 | < 1.02 | > 11.5 |  | 6.13 to 8.94 |  |  |  |  |  |  |  | 
COc1cc(Nc2ncnc(N3CCCCC3)n2)cc(OC)c1OC [Compound 207] | > 13 | > 13 | 10.1 to 13 | > 13 | > 13 |  | > 13 |  |  | 1.16 to 6.95 |  |  |  |  |  |  |  | 
COCCOc1ccc(Nc2ncnc(Nc3cc(-c4ccco4)n[nH]3)n2)cc1OCCOC [Compound 328] | 0.856 to 5.13 | < 0.856 | 0.856 to 5.13 | 5.13 to 7.49 | 0.856 to 5.13 | 5.13 to 7.49 | 0.856 to 5.13 | 0.856 to 5.13 |  | < 0.856 |  |  |  |  |  |  |  | 
COc1cc(Nc2ncnc(N3CCc4ccccc43)n2)cc(OC)c1OC [Compound 184] | > 11.9 | > 11.9 | 1.05 to 6.33 | > 11.9 | > 11.9 | 1.05 to 6.33 | < 1.05 | 1.05 to 6.33 |  | < 1.05 |  |  |  |  |  |  |  | 
COc1cc(Nc2ncnc(Nc3ccc4c(c3)OCO4)n2)cc(OC)c1OC [Compound 252] | 6.04 to 8.81 | < 1.01 | < 1.01 | > 11.3 | 1.01 to 6.04 | 1.01 to 6.04 | 1.01 to 6.04 | < 1.01 |  | < 1.01 |  |  |  |  |  |  |  | 
COc1cc(Nc2ncnc(-n3c(N)nc4ccccc43)n2)ccc1OCCn1ccnn1 [Compound 324] | 0.9 to 5.4 | < 0.9 | > 10.1 | > 10.1 | > 10.1 | > 10.1 | > 10.1 | > 10.1 |  | < 0.9 |  |  |  |  |  |  |  | 
COc1ccc(Nc2ncnc(Nc3ccc(Oc4ccccc4)cc3)n2)cc1OC [Compound 929] | 0.963 to 5.78 | 8.42 to 10.8 | 0.963 to 5.78 | > 10.8 | < 0.963 |  | > 10.8 |  | 0.963 to 5.78 | > 10.8 |  |  |  |  |  |  |  | 
COc1ccc(Nc2ncnc(Nc3cc(OC)c(OC)c(OC)c3)n2)cn1 [Compound 28] |  |  |  |  |  |  |  |  |  |  |  | E (E>4.5 ug/mL) | B (B>0.4 and <2.4 ug/mL) | B (B>0.4 and <2.4 ug/mL) | E (E>4.5 ug/mL) | B (B>0.4 and <2.4 ug/mL) | B (B>0.4 and <2.4 ug/mL) | B (B>0.4 and <2.4 ug/mL)
COc1ccc(N(C)c2ncnc(Nc3cc(OC)c(OC)c(OC)c3)n2)cc1 [Compound 106] | > 11.3 | 6.04 to 8.81 | 6.04 to 8.81 | > 11.3 | 1.01 to 6.04 |  | < 1.01 |  | 6.04 to 8.81 | < 1.01 |  |  |  |  |  |  |  | 
